Measurements: ChEMBL document CHEMBL3885881, “DrugMatrix”

Species on record: Rattus norvegicus
Assay: DrugMatrix - Regimen: Daily Repeat
Assay type: toxicity, organism-based, Sprague-Dawley
Design: regimen Daily Repeat, gender Male, age 6-8 weeks
Settings: in vivo, po, route oral GAVAGE, vehicle .5 % CMC; for ABSOLUTE BASOPHIL / ABSOLUTE EOSINOPHIL / ABSOLUTE LYMPHOCYTE / ABSOLUTE MONOCYTE / ABSOLUTE SEGMENTED NEUTROPHIL / BASOPHIL / EOSINOPHIL / ERYTHROCYTE COUNT / HEMATOCRIT / HEMOGLOBIN / LEUKOCYTE COUNT / LYMPHOCYTE / MEAN CORPUSCULAR HEMOGLOBIN / MEAN CORPUSCULAR HEMOGLOBIN CONCENTRATION / MEAN CORPUSCULAR VOLUME / MONOCYTE / NEUTROPHIL / NUCLEATED RED BLOOD CELLS / PLATELET COUNT: tissue Blood; for ALANINE AMINOTRANSFERASE / ALBUMIN / ALKALINE PHOSPHATASE / ASPARTATE AMINOTRANSFERASE / BLOOD UREA NITROGEN / CARBON DIOXIDE / CHLORIDE / CHOLESTEROL / CREATINE PHOSPHOKINASE / CREATININE / GLUCOSE / LACTATE DEHYDROGENASE / LIPASE / PHOSPHORUS / POTASSIUM / SODIUM / TOTAL BILIRUBIN / TOTAL PROTEIN / URIC ACID: tissue Plasma
[1] = 0 mg/kg, 72 h, dose level Control, time 3 day
[2] = 0 mg/kg, 120 h, dose level Control, time 5 day
[3] = 17 mg/kg, 72 h, dose level Low, time 3 day

## CN1CCN(CCCN2c3ccccc3Sc3ccc(Cl)cc32)CC1 [PROCHLORPERAZINE]
[1]
  ABSOLUTE BASOPHIL: 0 CELLS/uL
  ABSOLUTE EOSINOPHIL: 0 CELLS/uL
  ABSOLUTE LYMPHOCYTE: 10913.67 CELLS/uL
  ABSOLUTE MONOCYTE: 85.33 CELLS/uL
  ABSOLUTE SEGMENTED NEUTROPHIL: 1401 CELLS/uL
  BASOPHIL: 0%
  EOSINOPHIL: 0%
  ERYTHROCYTE COUNT: 5.57 x10E6/uL
  HEMATOCRIT: 35.58%
  HEMOGLOBIN: 13.8 G/DL
  LEUKOCYTE COUNT: 12.4 x10E3/uL
  LYMPHOCYTE: 88%
  MEAN CORPUSCULAR HEMOGLOBIN: 24.78 pg
  MEAN CORPUSCULAR HEMOGLOBIN CONCENTRATION: 38.82 G/DL
  MEAN CORPUSCULAR VOLUME: 63.88 fL
  MONOCYTE: 0.67%
  NEUTROPHIL: 11.33%
  NUCLEATED RED BLOOD CELLS: 0 /100WBC
  PLATELET COUNT: 1162.33 x10E3/uL
  ALANINE AMINOTRANSFERASE: 53 u/L
  ALBUMIN: 4.17 G/DL
  ALKALINE PHOSPHATASE: 374.5 u/L
  ASPARTATE AMINOTRANSFERASE: 89.5 u/L
  BLOOD UREA NITROGEN: 16.33 mg/dL
  CARBON DIOXIDE: 29.17 mmol/L
  CHLORIDE: 97.67 MEQ/L
  CHOLESTEROL: 77 mg/dL
  CREATINE PHOSPHOKINASE: 464.83 u/L
  CREATININE: 0.14 mg/dL
  GLUCOSE: 164 mg/dL
  LACTATE DEHYDROGENASE: 155.5 u/L
  LIPASE: 9.17 u/L
  PHOSPHORUS: 12.4 mg/dL
  POTASSIUM: 6.91 MEQ/L
  SODIUM: 141.47 MEQ/L
  TOTAL BILIRUBIN: 0.2 mg/dL
  TOTAL PROTEIN: 5.95 G/DL
  URIC ACID: 1.72 mg/dL
[2]
  ABSOLUTE BASOPHIL: 0 CELLS/uL
  ABSOLUTE EOSINOPHIL: 20.5 CELLS/uL
  ABSOLUTE LYMPHOCYTE: 13871.67 CELLS/uL
  ABSOLUTE MONOCYTE: 60.5 CELLS/uL
  ABSOLUTE SEGMENTED NEUTROPHIL: 980.67 CELLS/uL
  BASOPHIL: 0%
  EOSINOPHIL: 0.17%
  ERYTHROCYTE COUNT: 5.65 x10E6/uL
  HEMATOCRIT: 35.63%
  HEMOGLOBIN: 14.08 G/DL
  LEUKOCYTE COUNT: 14.93 x10E3/uL
  LYMPHOCYTE: 92.83%
  MEAN CORPUSCULAR HEMOGLOBIN: 24.97 pg
  MEAN CORPUSCULAR HEMOGLOBIN CONCENTRATION: 39.55 G/DL
  MEAN CORPUSCULAR VOLUME: 63.13 fL
  MONOCYTE: 0.33%
  NEUTROPHIL: 6.67%
  NUCLEATED RED BLOOD CELLS: 0 /100WBC
  PLATELET COUNT: 1248.17 x10E3/uL
  ALANINE AMINOTRANSFERASE: 45.17 u/L
  ALBUMIN: 4.27 G/DL
  ALKALINE PHOSPHATASE: 405.67 u/L
  ASPARTATE AMINOTRANSFERASE: 74.17 u/L
  BLOOD UREA NITROGEN: 15.5 mg/dL
  CARBON DIOXIDE: 30.17 mmol/L
  CHLORIDE: 100.67 MEQ/L
  CHOLESTEROL: 57 mg/dL
  CREATINE PHOSPHOKINASE: 239.5 u/L
  CREATININE: 0.17 mg/dL
  GLUCOSE: 165.67 mg/dL
  LACTATE DEHYDROGENASE: 90.5 u/L
  LIPASE: 8.83 u/L
  PHOSPHORUS: 12.32 mg/dL
  POTASSIUM: 7.03 MEQ/L
  SODIUM: 142.65 MEQ/L
  TOTAL BILIRUBIN: 0.18 mg/dL
  TOTAL PROTEIN: 6.03 G/DL
  URIC ACID: 1.98 mg/dL
[3]
  ABSOLUTE BASOPHIL: 0 CELLS/uL
  ABSOLUTE EOSINOPHIL: 0 CELLS/uL
  ABSOLUTE LYMPHOCYTE: 10730.67 CELLS/uL
  ABSOLUTE MONOCYTE: 90 CELLS/uL
  ABSOLUTE SEGMENTED NEUTROPHIL: 1446 CELLS/uL
  BASOPHIL: 0%
  EOSINOPHIL: 0%
  ERYTHROCYTE COUNT: 5.49 x10E6/uL
  HEMATOCRIT: 34.9%
  HEMOGLOBIN: 13.83 G/DL
  LEUKOCYTE COUNT: 12.27 x10E3/uL
  LYMPHOCYTE: 87.67%
  MEAN CORPUSCULAR HEMOGLOBIN: 25.3 pg
  MEAN CORPUSCULAR HEMOGLOBIN CONCENTRATION: 39.67 G/DL
  MEAN CORPUSCULAR VOLUME: 63.77 fL
  MONOCYTE: 0.67%
  NEUTROPHIL: 11.67%
  NUCLEATED RED BLOOD CELLS: 0.33 /100WBC
  PLATELET COUNT: 1239 x10E3/uL
  ALANINE AMINOTRANSFERASE: 45 u/L
  ALBUMIN: 4.17 G/DL
  ALKALINE PHOSPHATASE: 413.67 u/L
  ASPARTATE AMINOTRANSFERASE: 85.33 u/L
  BLOOD UREA NITROGEN: 15.33 mg/dL
  CARBON DIOXIDE: 26 mmol/L
  CHLORIDE: 99.33 MEQ/L
  CHOLESTEROL: 67.67 mg/dL
  CREATINE PHOSPHOKINASE: 343 u/L
  CREATININE: 0.13 mg/dL
  GLUCOSE: 151 mg/dL
  LACTATE DEHYDROGENASE: 394.67 u/L
  LIPASE: 9.67 u/L
  PHOSPHORUS: 14.23 mg/dL
  POTASSIUM: 6.98 MEQ/L
  SODIUM: 143.17 MEQ/L
  TOTAL BILIRUBIN: 0.2 mg/dL
  TOTAL PROTEIN: 5.9 G/DL
  URIC ACID: 1.5 mg/dL
